The target in data set [1] is T1, LHRH receptor (endogenous GnRH receptor of alpha T3-1 cell line) (Mus musculus, UniProt Q01776).
T1 construct: alpha T3-1 cell line with endogenous GnRH receptor expression; endogenous in cells; host or cells: alpha T3-1 cells (intact cell suspension)
T1 sequence (Q01776 1-327): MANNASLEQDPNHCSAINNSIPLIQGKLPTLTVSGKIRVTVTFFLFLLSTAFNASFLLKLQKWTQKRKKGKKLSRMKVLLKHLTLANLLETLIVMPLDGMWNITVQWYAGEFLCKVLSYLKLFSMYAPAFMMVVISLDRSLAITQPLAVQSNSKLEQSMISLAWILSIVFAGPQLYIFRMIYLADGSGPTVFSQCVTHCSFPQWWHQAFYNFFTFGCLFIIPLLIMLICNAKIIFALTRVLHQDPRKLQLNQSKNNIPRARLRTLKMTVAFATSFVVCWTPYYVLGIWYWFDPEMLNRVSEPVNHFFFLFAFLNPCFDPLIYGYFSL
Briefly: LHRH-receptor binding assay (displacement of [125I] cetrorelix on alpha T3-1 cells). Particulars: WO 2006/005484-substance 75 = 100%. The method, then: For LHRH receptor binding studies, an assay system using alpha T3-1 cell line with endogenous GnRH receptor expression was employed (Windle et al., Mol. Endocrinol. 1990, 4(4): 597-603).
Iodinated cetrorelix was used as a tracer with about 80% of peptide capable of specific receptor association.
For displacement binding assays, the cells were incubated with approximately 200 pM [^125l] cetrorelix and different concentrations of unlabeled test compounds as competitor. The cell suspension in binding medium was layered on top of silicon/paraffin oil, incubated for 60 min at 37° C. and separated by centrifugation. The tips of the tubes containing the cell pellet were cut off, subsequently cell pellet and supernatant were analyzed by gamma-radiation analysis.
The amount of unspecific binding was determined by including unlabeled cetrorelix at 1 μM final concentration and was typically ≦10% of total binding. IC50 values were calculated by using the GraphPad Prism analysis program (GraphPad Software Inc.).

The nature of data set [2]: Metabolic stability testing in liver microsomes. Particulars: mixed-gender human liver microsomes, 1 mg microsomal protein/mL, initial concentration 10 μM, 60 minutes at 37° C.; WO 2006/005484-substance 7 = 100%. Format: in vitro ADME. The method, then:
Subcellular fractions of different tissues can be prepared easily by ultracentrifugation. Most commonly these are prepared from the liver of animals and human donors to gain information about the potential hepatic clearance of compounds (first-pass elimination of drugs). Human or animal (e.g. dog, mouse, rat) subcellular fraction like liver microsomes, or possibly the fraction called S9 have therefore become a very commonly and widely used as an in vitro model to investigate mainly cytochrome P450 dependent phase I (but also phase II) metabolism that takes place in the liver.
In order to reflect the standard proportion of the enzymes in human and animal livers, liver microsomes are usually pooled from a number of […] of the same sex (or mixed-gender). By supplementing the liver microsomes with relevant cofactors and other components it is possible to investigate and distinguish between CYPs, flavin-containing monooxygenase (FMO) and UDP-glucuronosyltransferase (UGT) activities.
Selected compounds of the invention were tested for their stability in mixed-gender human liver microsomes and compared to pertinent prior art compounds.
Under the test conditions applied (1 mg microsomal protein/mL, initial concentration of 10 μM, and incubation for 60 minutes at 37° C.) the following normalized results were obtained.

The structures appear in SMILES notation.

On to `CCC(C)[C@H](NC(=O)Cc1ccccc1F)C(=O)N[C@]1(C(=O)N[C@H](C(=S)NCc2ccncc2)C(C)CC)CCc2[nH]c3c(C(F)(F)F)cccc3c2C1` (stereo partly drawn) [Compound 60, (R)-3-{(S)-2-[2-(2-Fluoro-phenyl)-acetylamino]-3-methyl-pentanoylamino}-8-trifluoromethyl-2,3,4,9-tetrahydro-1H-carbazole-3-carboxylic acid {(S)-2-methyl-1-[(pyridin-4-ylmethyl)-thiocarbamoyl]-butyl}-amide], for which the “Normalized Affinity” value in data set [1] came to 247%.

As to `CCC(C)[C@H](NC(=O)Cc1ccccc1F)C(=O)N[C@]1(C(=O)N[C@H](C(=S)NCc2nnc(C)o2)C(C)CC)CCc2[nH]c3c(C(F)(F)F)cccc3c2C1` (stereo partly drawn) [compound 118, (R)-3-{(S)-2-[2-(2-Fluoro-phenyl)-acetylamino]-3-methyl-pentanoylamino}-8-trifluoromethyl-2,3,4,9-tetrahydro-1H-carbazole-3-carboxylic acid {(S)-2-methyl-1-[(5-methyl-[1,3,4]oxadiazol-2-ylmethyl)-thiocarbamoyl]-butyl}-amide], in data set [1], the “Normalized Affinity” value was 285%.

For `CCC(C)[C@H](NC(=O)Cc1ccccc1F)C(=O)N[C@]1(C(=O)N[C@H](C(=O)Nc2nnn(C(C)(C)C)n2)C(C)CC)CCc2[nH]c3c(C(F)(F)F)cccc3c2C1` (stereo partly drawn) [compound 178, (R)-3-{(S)-2-[2-(2-Fluoro-phenyl)-acetylamino]-3-methyl-pentanoylamino}-8-trifluoromethyl-2,3,4,9-tetrahydro-1H-carbazole-3-carboxylic acid [(S)-1-(2-tert-butyl-2H-tetrazol-5-ylcarbamoyl)-2-methyl-butyl]-amide], the “Normalized Affinity” value in data set [1] was found to be 370%.

`CC[C@H](C)[C@H](NC(=O)Cc1ccccc1F)C(=O)N[C@]1(C(=O)N[C@H](c2nc(-c3ccccc3)cs2)[C@@H](C)CC)CCc2[nH]c3c(C(F)(F)F)cccc3c2C1` [compound 249, (R)-3-{(2S,3S)-2-[2-(2-Fluoro-phenyl)-acetylamino]-3-methyl-pentanoylamino}-8-trifluoromethyl-2,3,4,9-tetrahydro-1H-carbazole-3-carboxylic acid [(1S,2S)-2-methyl-1-(4-phenyl-thiazol-2-yl)-butyl]-amide] had a Normalized microsomal stability in data set [2] of 1580%.

In turn, `CCNC(=O)Nc1nnc([C@@H](NC(=O)[C@]2(NC(=O)[C@@H](NC(=O)Cc3ccccc3F)C(C)CC)CCc3[nH]c4c(C(F)(F)F)cccc4c3C2)C(C)CC)o1` (stereo partly drawn) [Compound 31, (S)-3-{(S)-2-[2-(2-Fluoro-phenyl)-acetylamino]-3-methyl-pentanoylamino}-8-trifluoromethyl-2,3,4,9-tetrahydro-1H-carbazole-3-carboxylic acid {(S)-1-[5-(3-ethyl-ureido)-[1,3,4]oxadiazol-2-yl]-2-methyl-butyl}-amide] displayed a Normalized microsomal stability in data set [2] of 276%.

With `CCC(C)[C@H](NC(=O)Cc1ccccc1F)C(=O)N[C@]1(C(=O)N[C@H](C(=O)NN2CCOCC2)C(C)CC)CCc2[nH]c3c(C(F)(F)F)cccc3c2C1` (stereo partly drawn) [compound 219, (R)-3-{(S)-2-[2-(2-Fluoro-phenyl)-acetylamino]-3-methyl-pentanoylamino}-8-trifluoromethyl-2,3,4,9-tetrahydro-1H-carbazole-3-carboxylic acid [(S)-2-methyl-1-(morpholin-4-ylcarbamoyl)-butyl]-amide], in data set [2], the Normalized microsomal stability is on record as 452%.

For `CCC(C)[C@H](NC(=O)Cc1ccccc1F)C(=O)N[C@]1(C(=O)N[C@H](C(=O)Nc2ccc(OC)cc2O)C(C)CC)CCc2[nH]c3c(C(F)(F)F)cccc3c2C1` (stereo partly drawn) [Compound 71, (R)-3-{(S)-2-[2-(2-Fluoro-phenyl)-acetylamino]-3-methyl-pentanoylamino}-8-trifluoromethyl-2,3,4,9-tetrahydro-1H-carbazole-3-carboxylic acid [(S)-1-(2-hydroxy-4-methoxy-phenylcarbarnoyl)-2-methyl-butyl]-amide], in data set [1], the “Normalized Affinity” value is listed as 411%.

The compound `CCOC(=O)c1csc(C(NC(=O)[C@@]2(NC(=O)[C@@H](NC(=O)Cc3ccccc3F)[C@@H](C)CC)CCc3[nH]c4c(C(F)(F)F)cccc4c3C2)[C@@H](C)CC)n1` (stereo in doubt) [compound 251, 2-{(1R,2S)-1-[((R)-3-{(2S,3S)-2-[2-(2-Fluoro-phenyl)-acetylamino]-3-methyl-pentanoylamino}-8-trifluoromethyl-2,3,4,9-tetrahydro-1H-carbazole-3-carbonyl)-amino]-2-methyl-butyl}-thiazole-4-carboxylic acid ethyl ester] yielded a Normalized microsomal stability in data set [2] of 1033%.

Take `CCC(C)[C@H](NC(=O)Cc1ccccc1F)C(=O)N[C@]1(C(=O)N[C@H](C(=S)NCCCn2ccnc2)C(C)CC)CCc2[nH]c3c(C(F)(F)F)cccc3c2C1` (stereo partly drawn) [Compound 74, (R)-3-{(S)-2-[2-(2-Fluoro-phenyl)-acetylamino]-3-methyl-pentanoylamino}-8-trifluoromethyl-2,3,4,9-tetrahydro-1H-carbazole-3-carboxylic acid [(S)-1-(3-imidazol-1-yl-propylthiocarbamoyl)-2-methyl-butyl]-amide]: the “Normalized Affinity” value in data set [1] came out at 247%. In data set [2], this compound showed a Normalized microsomal stability of 1889%.

Turning to `CCC(C)[C@H](NC(=O)Cc1ccccc1F)C(=O)N[C@]1(C(=O)N[C@H](C(=O)Nc2ccc(OC)c(O)c2)C(C)CC)CCc2[nH]c3c(C(F)(F)F)cccc3c2C1` (stereo partly drawn) [Compound 69, (R)-3-{(S)-2-[2-(2-Fluoro-phenyl)-acetylamino]-3-methyl-pentanoylamino}-8-trifluoromethyl-2,3,4,9-tetrahydro-1H-carbazole-3-carboxylic acid [(S)-1-(3-hydroxy-4-methoxy-phenylcarbamoyl)-2-methyl-butyl]-amide], the “Normalized Affinity” value in data set [1] is listed as 529%. The same compound displayed a Normalized microsomal stability in data set [2] of 1041%.

On to `CCC(C)[C@H](NC(=O)Cc1ccccc1F)C(=O)N[C@]1(C(=O)N[C@H](CNC(=O)NCc2ccncc2)C(C)CC)CCc2[nH]c3c(C(F)(F)F)cccc3c2C1` (stereo partly drawn) [compound 190, (R)-3-{(S)-2-[2-(2-Fluoro-phenyl)-acetylamino]-3-methyl-pentanoylamino}-8-trifluoromethyl-2,3,4,9-tetrahydro-1H-carbazole-3-carboxylic acid [(S)-2-methyl-1-(3-pyridin-4-ylmethyl-ureidomethyl)-butyl]-amide], for which the Normalized microsomal stability in data set [2] is on record as 665%.

On to `CCC(C)[C@H](NC(=O)Cc1ccccc1F)C(=O)N[C@]1(C(=O)N[C@H](CNC(=S)NCc2ccncc2)C(C)CC)CCc2[nH]c3c(C(F)(F)F)cccc3c2C1` (stereo partly drawn) [compound 205, (R)-3-{(S)-2-[2-(2-Fluoro-phenyl)-acetylamino]-3-methyl-pentanoylamino}-8-trifluoromethyl-2,3,4,9-tetrahydro-1H-carbazole-3-carboxylic acid [(S)-2-methyl-1-(3-pyridin-4-ylmethyl-thioureidomethyl)-butyl]-amide], for which, in data set [2], the Normalized microsomal stability was 800%.

In the case of `CCC(C)[C@H](NC(=O)Cc1ccccc1F)C(=O)N[C@]1(C(=O)N[C@H](C(=S)NCCCCn2cncn2)C(C)CC)CCc2[nH]c3c(C(F)(F)F)cccc3c2C1` (stereo partly drawn) [compound 114, (R)-3-{(S)-2-[2-(2-Fluoro-phenyl)-acetylamino]-3-methyl-pentanoylamino}-8-trifluoromethyl-2,3,4,9-tetrahydro-1H-carbazole-3-carboxylic acid [(S)-2-methyl-1-1(4-[1,2,4]triazol-1-ylbutylthiocarbamoyl)-butyl]-amide], the Normalized microsomal stability in data set [2] was 537%.

For the origin of these results see patent publication US8541462B2, “Tetrahydrocarbazole derivatives as ligands of G-protein coupled receptors” (AEterna Zentaris GmbH, priority 2007, dated 2013).
